Where a SMILES comes first, the peptide text is derived from it. Bridges are numbered along the chain shown (N, C = ends). [ ]: non-standard residue; d: D form. dΔPro = O=C(O)[C@H]1C=CCN1
molecular target: T1, P-selectin (Homo sapiens, UniProt P16109); experiment: Inhibition of human neutrophil adhesion to purified P-selectin immobilized on plastic wells; assay type: cell-based; conditions: inhibiting the binding of human neutrophils to P-selectin
T1 construct: P-selectin is isolated from human platelet lysates; from tissue; host or cells: human platelets (outdated platelet packs from a blood bank)
T1 sequence (P16109 42-830): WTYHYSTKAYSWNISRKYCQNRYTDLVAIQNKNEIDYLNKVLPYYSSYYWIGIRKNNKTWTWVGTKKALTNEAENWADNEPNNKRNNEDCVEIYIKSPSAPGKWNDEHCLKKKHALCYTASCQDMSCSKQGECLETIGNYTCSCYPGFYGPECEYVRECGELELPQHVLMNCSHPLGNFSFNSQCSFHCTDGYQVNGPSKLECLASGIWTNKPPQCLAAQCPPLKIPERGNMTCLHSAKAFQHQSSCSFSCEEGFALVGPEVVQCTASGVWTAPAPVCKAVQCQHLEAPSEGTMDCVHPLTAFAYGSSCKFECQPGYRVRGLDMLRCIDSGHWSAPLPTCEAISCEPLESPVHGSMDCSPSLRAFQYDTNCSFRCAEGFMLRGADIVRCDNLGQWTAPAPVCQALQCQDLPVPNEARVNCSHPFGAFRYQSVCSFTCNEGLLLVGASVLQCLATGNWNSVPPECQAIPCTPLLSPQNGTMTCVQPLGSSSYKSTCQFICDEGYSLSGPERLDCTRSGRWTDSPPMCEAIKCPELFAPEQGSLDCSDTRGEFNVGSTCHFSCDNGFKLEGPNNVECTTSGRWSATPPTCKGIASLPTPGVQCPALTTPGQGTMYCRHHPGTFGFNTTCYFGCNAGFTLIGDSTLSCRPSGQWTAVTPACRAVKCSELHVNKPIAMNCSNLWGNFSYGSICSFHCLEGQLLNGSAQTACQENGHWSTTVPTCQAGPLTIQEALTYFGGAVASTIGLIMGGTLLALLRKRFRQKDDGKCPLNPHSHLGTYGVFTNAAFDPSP
Source text: Peptides can be screened for their ability to inhibit adhesion to cells, for example, neutrophil adhesion to purified P-selectin immobilized on plastic wells, using the assay described by Geng, et al., Nature 343, 757-760 (1990). Human neutrophils are isolated from heparinized whole blood by density gradient centrifugation on Mono-Poly resolving media, Flow Laboratories. Neutrophil suspensions are greater than 98% pure and greater than 95% viable by trypan blue exclusion. For adhesion assays, neutrophils are suspended at a concentration of 2×10^6 cells/mL in Hanks' balanced salt solution containing 1.26 mM Ca^2+ and 0.81 mM Mg^2+ (HBSS, Gibco) with […] human serum albumin (HBSS/HSA). Adhesion assays are conducted in triplicate in 96-well microliter plates, Corning, incubated at 4° C. overnight with 50 microliters of various protein solutions. P-selectin is isolated from human platelet lysates by immunoaffinity chromatography on antibody S12-Sepharose™ and ion-exchange chromatography on a Mono-Q™ column (FLPC, Pharmacia Fine Chemicals), as follows. Outdated human platelet packs (100 units) obtained from a blood bank and stored at 4° C. are pooled, adjusted to 5 mM EDTA at pH 7.5, centrifuged at 4,000 rpm for 30 minutes in 1 liter bottles, then washed three times with 1 liter of 0.1M NaCl, 20 mM Tris pH 7.5 (TBS), 5 mM EDTA, 5 mM benzamidine. The pellets are then resuspended in a minimum amount of wash buffer and made 1 mM in DIFP, then frozen in 50 mL screwtop tubes at -80° C. The frozen platelets are thawed and resuspended in 50 mL TBS, 5 mM benzamidine, 5 mM EDTA pH 7.5, […]. The suspension is frozen and thawed two times in a dry ice-acetone bath using a 600 mL lyophilizing flask, then homogenized in a glass/teflon mortar and pestle and made 1 mM in DIFP. The NaCl concentration is adjusted to 0.5M with a stock solution of 4M NaCl. After stirring the suspension at 4° C., it is centrifuged in polycarbonate tubes at 33,000 rpm for 60 minutes at 4° C. The supernatant (0.5M NaCl wash) is removed and saved; this supernatant contains the soluble form of P-selectin. Care is taken not to remove the top part of the pellet with the supernatant. The pellets are then homogenized in extraction buffer (TBS, 5 mM benzamidine, 5 mM EDTA, pH 7.5, 100 μM leupeptin, 2% Triton X-100). After centrifugation at 19,500 rpm for 25 minutes at 4° C., the supernatant is removed. The extraction procedure is repeated with the pellet and the supernatant is combined with the first supernatant. The combined extracts, which contain the membrane form of P-selectin, are adjusted to 0.5M NaCl. The soluble fraction (0.5M NaCl wash) and the membrane extract (also adjusted to 0.5M NaCl) are absorbed with separate pools of the monoclonal antibody S12 (directed to P-selectin) previously couple […]) at 5 mg/mL for 2 hours at 4° C. After letting the resins settle, the supernatants are removed. The S12 Affigel containing bound GMP-140 is then loaded into a column and washed overnight at 4° C. with 400 mL of 0.5M NaCl, 20 mM Tris pH 7.5, 0.01% Lubrol PX. Bound P-selectin is eluted from the S12 Affigel with 100 mL of 80% ethylene glycol, 1 mM MES pH 6.0, 0.01% Lubrol PX. Peak fractions with absorbance at 280 nm are pooled. Eluates are dialyzed against TBS with 0.05% Lubrol, then applied to a Mono Q column (FPLC from Pharmacia). The concentrated protein is step eluted with 2M NaCl, 20 mM Tris pH 7.5 (plus 0.05% Lubrol PX for the membrane fraction). Peak fractions are dialyzed into TBS pH 7.5 (plus 0.05% Lubrol PX for the membrane fraction). P-selectin is plated at 5 micrograms/mL and the control proteins: human serum albumin (Alb), platelet glycoprotein IIb/IIIa (IIb), von Willebrand factor (vWF), fibrinogen (FIB), thrombomodulin (TM), gelatin (GEL) or human serum (HS), are added at 50 micrograms/mL. […]

Structure (SMILES)	IC50
CC[C@H](C)[C@@H]1NC(=O)CNC(=O)[C@@H](NC(=O)[C@@H](NC(=O)[C@H](CCCCN)NC(=O)[C@@H](N)CCCNC(=N)N)[C@@H](C)CC)CCC(=O)NCCCC[C@@H](C(=O)N[C@@H](Cc2c[nH]c3ccccc23)C(=O)N[C@H](C(N)=O)C(C)C)NC(=O)[C@H](Cc2c[nH]c3ccccc23)NC1=O [(30)] (H-RKIEGIWKWV-NH2; lactam 4-8)	93 µM
CC[C@H](C)[C@@H]1NC(=O)CNC(=O)[C@@H](NC(=O)[C@@H](NC(=O)[C@H](CCCCN)NC(=O)[C@@H](N)CCCNC(=N)N)[C@@H](C)CC)CCCCNC(=O)CC[C@@H](C(=O)N[C@@H](Cc2c[nH]c3ccccc23)C(=O)N[C@H](C(N)=O)C(C)C)NC(=O)[C@H](Cc2c[nH]c3ccccc23)NC1=O [(31)] (H-RKIKGIWEWV-NH2; lactam 4-8)	18 µM
CC[C@@H](C)[C@@H](NC(=O)[C@@H](CCCCN)NC(=O)[C@H](N)CCCNC(=N)N)C(=O)NCC(=O)N[C@@H]1CSSC[C@H](C(=O)N[C@@H](C(=O)N[C@@H](C(N)=O)C(C)C)[C@H](C)O)NC(=O)[C@@H](Cc2c[nH]c3ccccc23)NC(=O)[C@@H]([C@H](C)CC)NC1=O [(32)] (H-[dR][dK][dI]G[dC][dI][dW][dC][dT][dV]-NH2; disulfide 5-8)	23 µM
CC(C)[C@@H](NC(=O)[C@@H](Cc1c[nH]c2ccccc12)NC(=O)[C@H](NC(=O)[C@@H](Cc1c[nH]c2ccccc12)NC(=O)[C@H]1CSSC[C@@H](NC(=O)[C@H](CCCCN)NC(=O)[C@H](N)CCCNC(=N)N)C(=O)NCC(=O)N[C@@H](Cc2ccccc2)C(=O)N1)[C@H](C)O)C(N)=O [(34)] (H-[dR]K[dC]GF[dC][dW][dT][dW][dV]-NH2; disulfide 3-6)	88.5 µM
CC(C)[C@@H](NC(=O)[C@@H](Cc1c[nH]c2ccccc12)NC(=O)[C@H](NC(=O)[C@@H](Cc1c[nH]c2ccccc12)NC(=O)[C@H]1CSSC[C@H](NC(=O)[C@@H](CCCCN)NC(=O)[C@H](N)CCCNC(=N)N)C(=O)NCC(=O)N[C@@H](Cc2ccccc2)C(=O)N1)[C@H](C)O)C(N)=O [(35)] (H-[dR][dK]CGF[dC][dW][dT][dW][dV]-NH2; disulfide 3-6)	11.6 µM
CC(C)[C@@H](NC(=O)[C@@H](Cc1c[nH]c2ccccc12)NC(=O)[C@H](NC(=O)[C@@H](Cc1c[nH]c2ccccc12)NC(=O)[C@H]1CSSC[C@@H](NC(=O)[C@@H](CCCCN)NC(=O)[C@H](N)CCCNC(=N)N)C(=O)NCC(=O)N2CC=C[C@@H]2C(=O)N1)[C@H](C)O)C(N)=O [(36)] (H-[dR][dK][dC]G[dΔPro][dC][dW][dT][dW][dV]-NH2; disulfide 3-6)	267 µM
CC(C)[C@@H](NC(=O)[C@@H](Cc1c[nH]c2ccccc12)NC(=O)[C@H](NC(=O)[C@@H](Cc1c[nH]c2ccccc12)NC(=O)[C@H]1CSSC[C@@H](NC(=O)[C@@H](CCCCN)NC(=O)[C@H](N)CCCNC(=N)N)C(=O)NCC(=O)N[C@@H](CCCNC(=N)N)C(=O)N1)[C@H](C)O)C(N)=O [(40)] (H-[dR][dK][dC]GR[dC][dW][dT][dW][dV]-NH2; disulfide 3-6)	324 µM
CC(C)[C@@H](NC(=O)[C@@H](Cc1c[nH]c2ccccc12)NC(=O)[C@H](NC(=O)[C@@H](CCC(N)=O)NC(=O)[C@H]1CSSC[C@@H](NC(=O)[C@@H](CCCCN)NC(=O)[C@H](N)CCCNC(=N)N)C(=O)NCC(=O)N[C@@H](Cc2ccccc2)C(=O)N1)[C@H](C)O)C(N)=O [(46)] (H-[dR][dK][dC]GF[dC][dQ][dT][dW][dV]-NH2; disulfide 3-6)	48.4 µM
CC(C)[C@@H](NC(=O)[C@@H](Cc1c[nH]c2ccccc12)NC(=O)[C@H](NC(=O)[C@@H](Cc1c[nH]cn1)NC(=O)[C@H]1CSSC[C@@H](NC(=O)[C@@H](CCCCN)NC(=O)[C@H](N)CCCNC(=N)N)C(=O)NCC(=O)N[C@@H](Cc2ccccc2)C(=O)N1)[C@H](C)O)C(N)=O [(48)] (H-[dR][dK][dC]GF[dC][dH][dT][dW][dV]-NH2; disulfide 3-6)	406 µM

Reference: US5753617A, “Peptide inhibitors of cellular adhesion” (Centocor, Inc., priority 1995, dated 1998)
